# Test results published in US8471021B2, “Sulfur containing heterocycle-fused naphthalene tetracarboxylic acid diimide derivatives, preparation method and use thereof” (Shanghai Institute Of Organic Chemistry, Chinese Academy Of …, priority 2009, dated 2013).
# Experiments:
# [1] = Cyclic voltammetry in dichloromethane; type: physicochemical; conditions: for LUMO energy level: calculated by equation (2), −(E1/2^red1+4.44); for half-wave potential E1/2^red1 / half-wave potential E1/2^red2: Bu4NPF6 0.1 M, 50 mV/s
# Procedure: Cyclic voltammetry measurement was conducted by CHI610D electrochemical analyzer with computer control using a conventional tri-electrode system with platinum electrode as a working electrode, saturated calomel electrode (SCE) as a reference electrode, and platinum wire as a counter electrode. Samples were dissolved in freshly distilled dichloromethane to a molar concentration of 1×10^−3 M. Bu4NPF6 (0.1 M) was applied as a supporting electrolyte. The scan rate was 50 mV/s. Using saturated calomel as reference, taking the SCE energy level to be −4.44 eV below the vacuum level, the LUMO energies for the test material can be calculated by using the following equation for energy level: ELUMO=−(E1/2^red1+4.44) eV (2)
# [2] = UV absorption spectrum in dichloromethane; type: physicochemical; conditions: for optical band gap: calculated by equation (1), 1240 nm/λonset
# Procedure: UV absorption spectrum measurement was conducted using U-3900 spectrometer. Samples were dissolved in dichloromethane to a molar concentration of 1×10^−6M, the scanning scope was 800-200 nm, and the optical band gap of the compound was calculated according to the following equation, Egap^opt=1240 nm/λonset (1)
# [3] = Solubility in common organic solvents at room temperature; type: physicochemical; conditions: for example chloroform, tetrahydrofuran
# Source text: The 21 exemplary compounds (1˜21) described above for the five classes of sulfur containing heterocycle fused naphthalenetetracarboxylic acid diimide derivatives are soluble in regular organic solvents, such as chloroform, toluene, chlorobenzene, dichlorobenzene, and the like.
# [4] = Cyclic voltammetry in dichloromethane; type: physicochemical; conditions: calculated by equation (3), −(Ered^onset+4.4)
LUMO energy level [1],"half-wave potential E1/2^red1 ([1]; vs SCE, dichloromethane)","half-wave potential E1/2^red2 ([1]; vs SCE, dichloromethane)",optical band gap [2],"maximum UV absorption peak ([2]; dichloromethane, 1×10^−6M)",melting point,SMILES,also measured
−4.35 eV,−0.09 V,−0.63 V,2.1 eV,around 573 nm,240 °C,"CCCCCCCCCCCCC(CCCCCCCCCC)Cn1c(=O)c2c3sc(=C(C#N)C#N)sc3c3c(=O)n(CC(CCCCCCCCCC)CCCCCCCCCCCC)c(=O)c4c5sc(=C(C#N)C#N)sc5c(c1=O)c2c34 (stereo not shown) [Compound 1, N,N′-di(2-decyltetradecyl)-[2,3-d:6,7-d′]-bi[2-(1,3-dithiacyclopenten-2-ylidene)-2-malononitrile]-naphthalene-1,4,5,8-tetracarboxylic acid diimide]",–
–,–,–,–,–,265 °C,"CCCCCCCCCCC(CCCCCCCC)Cn1c(=O)c2c3sc(=C(C#N)C#N)sc3c3c(=O)n(CC(CCCCCCCC)CCCCCCCCCC)c(=O)c4c5sc(=C(C#N)C#N)sc5c(c1=O)c2c34 (stereo not shown) [Compound 2, N,N′-di(2-octyldodecyl)-[2,3-d:6,7-d′]-bi[2-(1,3-dithiacyclopenten-2-ylidene)-2-malononitrile]-naphthalene-1,4,5,8-tetracarboxylic acid diimide]",–
–,–,–,–,–,317 to 319 °C,"CCCCCCCCC(CCCCCC)Cn1c(=O)c2c3sc(=C(C#N)C#N)sc3c3c(=O)n(CC(CCCCCC)CCCCCCCC)c(=O)c4c5sc(=C(C#N)C#N)sc5c(c1=O)c2c34 (stereo not shown) [Compound 3, N,N′-di(2-hexyldecyl)-[2,3-d:6,7-d′]-bi[2-(1,3-dithiacyclopenten-2-ylidene)-2-malononitrile]-naphthalene-1,4,5,8-tetracarboxylic acid diimide]",–
–,–,–,–,–,349 to 351 °C,"CCCCCCC(CCCCCC)Cn1c(=O)c2c3sc(=C(C#N)C#N)sc3c3c(=O)n(CC(CCCCCC)CCCCCC)c(=O)c4c5sc(=C(C#N)C#N)sc5c(c1=O)c2c34 [Compound 4, N,N′-di(2-hexyloctyl)-[2,3-d:6,7-d′]-bi[2-(1,3-dithiacyclopenten-2-ylidene)-2-malononitrile]-naphthalene-1,4,5,8-tetracarboxylic acid diimide]",–
–,–,–,–,–,369 to 371 °C,"CCCCCCC(CCCC)Cn1c(=O)c2c3sc(=C(C#N)C#N)sc3c3c(=O)n(CC(CCCC)CCCCCC)c(=O)c4c5sc(=C(C#N)C#N)sc5c(c1=O)c2c34 (stereo not shown) [Compound 5, N,N′-di(2-butyloctyl)-[2,3-d:6,7-d′]-bi[2-(1,3-dithiacyclopenten-2-ylidene)-2-malononitrile]-naphthalene-1,4,5,8-tetracarboxylic acid diimide]",–
–,–,–,–,–,–,"CCCCC(CC)Cn1c(=O)c2c3sc(=C(C#N)C#N)sc3c3c(=O)n(CC(CC)CCCC)c(=O)c4c5sc(=C(C#N)C#N)sc5c(c1=O)c2c34 (stereo not shown) [Compound 6, N,N′-di(2-ethylhexyl)-[2,3-d:6,7-d′]-bi[2-(1,3-dithiacyclopenten-2-ylidene)-2-malononitrile]-naphthalene-1,4,5,8-tetracarboxylic acid diimide]",solubility [3]: relatively low solubility
–,–,–,–,–,330 to 332 °C,"CCCCCCCCC(CCCCCC)CCn1c(=O)c2c3sc(=C(C#N)C#N)sc3c3c(=O)n(CCC(CCCCCC)CCCCCCCC)c(=O)c4c5sc(=C(C#N)C#N)sc5c(c1=O)c2c34 (stereo not shown) [Compound 7, N,N′-di(3-hexylundecyl)-[2,3-d:6,7-d′]-bi[2-(1,3-dithiacyclopenten-2-ylidene)-2-malononitrile]-naphthalene-1,4,5,8-tetracarboxylic acid diimide]",–
–,–,–,–,–,–,"CCCCCCCCn1c(=O)c2c3sc(=C(C#N)C#N)sc3c3c(=O)n(CCCCCCCC)c(=O)c4c5sc(=C(C#N)C#N)sc5c(c1=O)c2c34 [Compound 8, N,N′-di(n-octyl)-[2,3-d:6,7-d′]-bi[2-(1,3-dithiacyclopenten-2-ylidene)-2-malononitrile]-naphthalene-1,4,5,8-tetracarboxylic acid diimide]",solubility [3]: relatively low solubility
−4.23 eV,−0.21 V,−0.68 V,2.0 eV,around 581 nm,–,"CCCCCCCCCCC(CCCCCCCC)Cn1c(=O)c2c3sc(=C(C#N)C(=O)OCC)sc3c3c(=O)n(CC(CCCCCCCC)CCCCCCCCCC)c(=O)c4c5sc(=C(C#N)C(=O)OCC)sc5c(c1=O)c2c34 (stereo not shown) [Compound 9, N,N′-di(2-octyldodecyl)-[2,3-d:6,7-d′]-bi[ethyl 2-(1,3-dithiacyclopenten-2-ylidene)-2-cyanoacetate]-naphthalene-1,4,5,8-tetracarboxylic acid diimide]",–
–,-0.81 V,–,1.8 eV,around 655 nm,–,"CCCCCCCCCCCCC(CCCCCCCCCC)Cn1c(=O)c2c3sc(=C(C#N)c4ccccc4)sc3c3c(=O)n(CC(CCCCCCCCCC)CCCCCCCCCCCC)c(=O)c4c5sc(=C(C#N)c6ccccc6)sc5c(c1=O)c2c34 (stereo not shown) [Compound 12, N,N′-di(2-decyltetradecyl)-[2,3-d:6,7-d′]-bi[2-(1,3-dithiacyclopenten-2-ylidene)-2-phenylacetonitrile]-naphthalene-1,4,5,8-tetracarboxylic acid diimide]","onset reduction potential Ered^onset ([1]; vs SCE, dichloromethane): −0.23 V; LUMO energy level [4]: −4.17 eV"
−4.28 eV,−0.16 V,−0.64 V,2.0 eV,around 550 nm,–,"CCCCCCCCCCC(CCCCCCCC)Cn1c(=O)c2c3sc(C#N)c(C#N)sc3c3c(=O)n(CC(CCCCCCCC)CCCCCCCCCC)c(=O)c4c5sc(C#N)c(C#N)sc5c(c1=O)c2c34 (stereo not shown) [Compound 15, N,N′-di(2-octyl-dodecyl)-[2,3-d:6,7-d′]-bi[1,4-dithiacyclohexadiene-2,3-dicarbonitrile]-naphthalene-1,4,5,8-tetracarboxylic acid diimide]",–
−4.63 eV,0.19 V,−0.40 V,2.2 eV,250˜318 nm,–,"CCCCCCCCCCCCC(CCCCCCCCCC)CN1C(=O)c2c3sc(C#N)c(C#N)c3c3c4c(c5sc(C#N)c(C#N)c5c(c24)C1=O)C(=O)N(CC(CCCCCCCCCC)CCCCCCCCCCCC)C3=O (stereo not drawn) [Compound 18, N,N′-di(2-decyl-tetradecyl)-[2,3-d:6,7-d′]-bi[α,β-dicyanothiophene]-naphthalene-1,4,5,8-tetracarboxylic acid diimide]","end absorption peak ([2]; dichloromethane, 1×10^−6M): 545 nm"
